In PMC13371181, “A paracrine-to-autocrine shunt of GREM1 fuels colorectal cancer metastasis via ACVR1C” (Molecular Cancer, 2026):
“Also recorded” adds a separate entry of the source. Peptide text beside a SMILES is read from it.

Experiments:
HCT116-luc cells = experiment: Spleen-to-liver metastasis model, HCT116-luc (pLV-GREM1) in NOG mice; type: in vivo, human cells in NOG mice; conditions: HCT116-luc (pLV-GREM1) injected in the spleen, ACVR1C peptide 10 mg/kg i.v. (tail vein) every other day from 48 h after cell injection, IVIS, n = 5 mice per group
Protocol: For spleen-to-liver metastasis model, 5 × 10^5 MC38-luc cells or MC38-luc (pLV-Grem1) cells were resuspended in 50 µL of PBS and injected into the spleen of GD mice or control mice (Grem1-CreER^T2/Rosa-LSL-DTA mice) (n = 5 mice in each group). 5 × 10^5 HCT116-luc cells carrying a pLV or pLV-GREM1 were resuspended in 50 µL of PBS and intrasplenically injected into NOG mice (n = 5 mice in each group). ACVR1C peptide was administered via tail vein injection at a dose of 10 mg/kg once every other day.

GREM1–ACVR1C = experiment: Pull-down assay, blocking of GREM1–ACVR1C-ECD binding; set-up: species or system human; conditions: GREM1-His and ACVR1C-ECD-Fc, Coomassie Brilliant Blue
Protocol: Protein pull-down assay was performed using purified recombinant human His-tagged GREM1 protein and recombinant human ACVR1C-ECD and Fc chimera protein. Protein was enriched by Pierce Protein A magnetic beads (MCE, HY-K0202) or Ni Sepharose 6 Fast Flow (GE, 17531801) following the manufacturer’s instructions. Pulled-down proteins were detected by Coomassie Brilliant Blue staining.

GREM1 [1] = biological target: T1, GREM1 (Homo sapiens, UniProt O60565); experiment: MST binding of ACVR1C peptide to GREM1-His; conditions: GREM1 for ACVR1C peptide versus ACVR1C-ECD
T1 construct: His; purchased R&D 5190-GR
T1 sequence (O60565 25-184): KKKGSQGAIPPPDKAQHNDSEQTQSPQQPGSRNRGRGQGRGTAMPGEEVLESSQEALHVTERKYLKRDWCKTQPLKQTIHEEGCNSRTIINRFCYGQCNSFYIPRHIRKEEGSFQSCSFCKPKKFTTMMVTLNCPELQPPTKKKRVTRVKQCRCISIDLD
Protocol: MST was carried out on a Monolith NT.115 instrument (NanoTemper Technologies GmbH, MO-L011). To evaluate ACVR1C-ECD or ACVR1C peptide or ACVR1C-ECD-double mutant (E85A/T101A) binding to GREM1-His or ACTIVIN B-His, an increasing concentration of purified ACVR1C-ECD-Fc protein (0–27.5 µM) or ACVR1C peptide (0–2.3 µM) or ACVR1C-ECD-double mutant (0–27.5 µM) was incubated with 50 nM red-fluorescently labeled (NanoTemper Technologies GmbH, MO-L011) GREM1-His protein (R&D, 5190-GR) or ACTIVIN B-His protein (SinoBiological, 10814-H08H). Experiments were carried out in a PBS buffer pH 7.4 using premium capillaries (NanoTemper Technologies GmbH, MO-K025).

GREM1 [2] = conditions: monoclonal antibodies; cited from earlier work
From the text: The advent of cancer genomics and precision medicine has enabled targeted therapies for advanced CRC, with agents against VEGF, EGFR, BRAF V600E, and HER2 showing efficacy in selected patient subsets. However, issues like limited bioavailability, resistance, and narrow indications restrict their broader use. Unlike mutation-specific targets, GREM1 is a widely expressed cytokine with sustained, context-dependent activity, making it a promising and potentially broadly applicable therapeutic target in CRC. Therapeutic targeting of GREM1 to date has focused largely on full neutralization str ...

Row | affinity compared with ACVR1C-ECD (GREM1 [1]) | Molecule | liver metastasis (HCT116-luc cells) | liver metastasis (HCT116-luc cells; listed as GREM1-blocking peptide) | blocking of GREM1–ACVR1C binding (GREM1–ACVR1C) | efficacy in preclinical models (GREM1 [2])
1 | comparable to that for the ACVR1C-ECD | CC[C@H](C)[C@H](NC(=O)[C@H](CC(N)=O)NC(=O)[C@H](CC(N)=O)NC(=O)[C@H](CS)NC(=O)[C@H](Cc1ccccc1)NC(=O)[C@H](CC(=O)O)NC(=O)[C@@H](NC(=O)[C@H](Cc1ccccc1)NC(=O)[C@H](CS)NC(=O)[C@H](CS)NC(=O)[C@H](CCC(=O)O)NC(=O)[C@@H](N)[C@@H](C)O)[C@@H](C)O)C(=O)N[C@H](C(=O)N[C@@H](CC(C)C)C(=O)N[C@@H](Cc1c[nH]cn1)C(=O)N[C@@H](CC(C)C)C(=O)N1CCC[C@H]1C(=O)N[C@H](C(=O)N[C@@H](C)C(=O)O)[C@@H](C)O)[C@@H](C)O [ACVR1C peptide] (H-TECCFTDFCNNITLHLPTA-OH; N-terminus and C-terminus assumed) | effectively suppressed the increase in liver metastasis induced by tumor-specific GREM1 overexpression | significantly impairs CRC metastasis in vivo | significantly blocked the GREM1–ACVR1C binding; also recorded: blocked the interaction between GREM1 and ACVR1C-ECD | –
2 | – | Ginisortamab: fully humanized anti-GREM1 monoclonal antibody | – | – | – | have shown efficacy in preclinical models
